Here are results for 86 molecules from a melting point compilation (Tetko et al.; mined from patent text by program, amines drawn as free bases though some values may be those of a salt).

Molecules are shown by their SMILES.

The melting point is the temperature of the solid-liquid transition. As for `CC(=O)Nc1c(Cl)c(C(C)(C)C)nn1-c1c(Cl)cc(C(F)(F)F)cc1Cl`, the melting point worked out at 211 °C. Under `CCOC(=O)CN(CC(=O)OCC)C(=O)c1cc(OCCCCCCOc2ccc(-c3ccccc3)cc2)ccc1OCc1ccccc1` stands 60 to 62 °C; under `Clc1ccc2c(c1)C(c1ccccc1Cl)=NCc1n[nH]cc1-2`, 142 to 144 °C. Under `NCc1ccccc1C1CCN(c2nc3c(cc2F)c(=O)c(C(=O)O)cn3C2CC2)C1` (stereo unspecified) stands 226 to 228 °C; under `COc1ccc(NC(=O)c2ccc(F)c(F)c2)cc1NS(=O)(=O)CCl`, 191 to 193 °C; under `CCCCC(CC)c1nc2cc(O)c(C#N)c(C)n2n1` (stereo unspecified), 253 to 254 °C. Under `COc1cc(Nc2c(C#N)cnc3cc(C#C[Si](C)(C)C)sc23)c(Cl)cc1Cl` stands 169 to 171 °C; under `CCCc1c(OCCCOc2ccc(-c3cc[nH]n3)c(OC)c2CCC)ccc2c1OC(C(=O)O)CC2` (stereo unspecified), 156 to 158 °C.

For `O=C(O)COc1ccc(Cl)cc1-c1ccc(S(=O)(=O)N2CCOCC2)c(C(F)(F)F)c1`, the melting point was in the range of 208 to 209 °C. As to `O=C(Nc1cc(C(=O)NCCc2ccccc2)ccc1O)C(=O)Nc1cc(Cl)cc(Cl)c1O`, the melting point is 265 °C.

`CCCCCCCCCCCCCCCCCC1=NCCO1` yielded a melting point of 52 to 53 °C. Turning to `CCOCCNCc1ccc(C(=O)Nc2nc(-c3ccccc3)c(-c3ccc(=O)n(C(C)C)n3)s2)cc1`, the melting point was 153 to 154 °C. Under `O=c1c2cccc(F)c2nc2sccn12` stands 187 to 189 °C; under `COc1cc(COc2nn(-c3ccccc3)cc2/C=C/c2csc(C(C)(C)C)n2)ccc1OCc1nc(-c2ccc(CC(=O)O)cc2)oc1C`, 113 to 115 °C. `CSC1=Nc2ccccc2N(C)c2cscc21` gave a melting point of 113 to 115 °C. As for `CC(=Cc1ccc(Cl)cc1Cl)c1ccc(Cl)cc1`, the melting point is 84 to 85 °C.

Consider `NCC1(Cc2ccc(CC(=O)O)cc2)CCC1`, for which the melting point was > 255 °C. Under `Cc1oc(-c2ccccc2)nc1CCc1nc(COc2ccccc2CC(=O)O)co1` stands 109 to 110 °C. Under `CCCCOc1c(CNC(=O)OC(C)(C)C)n(CC(C)C)c(=O)c2ccc(-c3ccccc3)cc12` stands 155 to 159 °C. Under `COc1ccc([C@@H]2Sc3cc(Oc4ccc5c(c4)OCO5)ccc3NC(=O)[C@@H]2O)cc1` stands 188 °C; under `CCCCCCCN(CCCCCSc1nc2cc(C)ccc2[nH]1)C(=O)Nc1ccc(F)cc1F`, 70 to 72 °C. In turn, `Cc1cc(=O)n(-c2c(Cl)cc(C(F)(F)F)cc2Cl)[nH]1` came in with a melting point of 174 to 175 °C.

`CCOC(=O)c1ccc(NC(=O)Oc2ccccc2)cc1` returned a melting point of 156 to 162 °C.

`c1ccc2c(c1)nc1n2CCCSC1` returned a melting point of 155 to 157 °C.

In the case of `Cc1cccc2c1nc(-c1c(F)cccc1F)n2Cc1c(Cl)cccc1Cl`, the melting point fell in the range of 202 to 203 °C. Under `CCC1N=C(c2ccccc2Cl)c2cc(CCC(=O)OC)sc2-n2c(C)nnc21` (stereo unspecified) stands 126 to 127 °C; under `O=C(c1cc(-c2ccncc2)c(N2CCOCC2)s1)c1ccc(Cl)cc1Cl`, 180 °C; under `Nc1scc2c1C(=O)c1ccc(Cl)cc1-2`, 201 to 202 °C. Under `CS(=O)(=O)Nc1ccc(NC(=O)CN2CCC(Cc3ccc(F)cc3)CC2)cc1` stands 169 to 171 °C; under `C=CC(O)c1cccc(C=Cc2ccc3ccc(Cl)cc3n2)c1` (stereo unspecified), 110 to 112 °C. Regarding `CC(CCCn1cc(CCO)c(=O)[nH]c1=O)C(=O)O` (stereo unspecified), the melting point was 105 °C. Under `O=C(CCc1cccc2[nH]ccc12)c1ccccc1O` stands 143 °C.

In turn, `CCN(CC)c1c([N+](=O)[O-])cc(C#N)c(N)c1[N+](=O)[O-]` yielded a melting point of 146 °C.

`CCCC/C(=C\C=C\C(=O)O)c1cccc(OC)c1` yielded a melting point of 77.5 to 78.5 °C.

`CCCCCCC(=O)COS(=O)(=O)c1ccc(OCC)cc1`: the melting point was in the range of 38 to 39 °C. Consider `COc1ccc2c(c1)CCN(C#N)C2c1cc(OC)c(OC)c(OC)c1` (single isomer, unassigned; (-)), for which the melting point was in the range of 132 to 134 °C. Under `CC(=O)C1CCC2C3CCC4CC(F)CCC4(C)C3CCC12C` (stereo unspecified) stands 154 to 155 °C; under `CCOC(=O)c1c(N2CCN(C(=O)c3cccs3)CC2)c2cccnc2n(CCN(C)C)c1=O`, 134 °C; under `Cc1cc(Cl)ccc1-n1nc(O)c2[nH]c3cc(Cl)ccc3c(=O)c2c1=O`, 279 to 281 °C. As for `CCOC(=O)C(C)=CC=CC(C)=CC=CC=C(C)C=O`, the melting point fell in the range of 120 to 121 °C.

As to `O=C(O)CSCC(Cc1ccccc1)NCCS` (stereo unspecified), the melting point was determined as 201 °C. With `COC(=O)c1ccc(C(=O)c2c(C)c(OCc3cccc(OC)c3)c3ccccn23)cc1`, the melting point was found to be 106 °C. Under `NS(=O)(=O)OCCOc1ccc(OCc2ccccc2)cc1` stands 125 to 128 °C; under `COc1ccc2c(c1)CN(C(=O)CCCCCN1CCN(c3cccc(C(F)(F)F)c3)CC1)C2`, 92 °C; under `CCCCCC(O)CCCN(Cc1cccc(C=CC(=O)O)c1)S(C)(=O)=O` (stereo unspecified), 105 °C.

In turn, `O=C1N(N2CCOCC2)c2ccccc2C1(Cc1ccccc1)Cc1ccccc1` gave a melting point of 179 to 180 °C. In the case of `Cc1cc(C)c2nc(NCCC(N)=O)n(Cc3nc(C)ccc3O)c2c1`, the melting point turned out to be 229 °C. In turn, `c1ccc2cc(CSCc3ccc4ccccc4c3)ccc2c1` displayed a melting point of 119 to 121 °C. Under `CC1(C)NCCc2c1oc1cc(S(=O)(=O)c3cccc(F)c3)ccc21` stands 110 to 114 °C; under `CON=C(Cn1c(=O)ccc2ccccc21)c1ccc(C)cc1`, 129 to 132 °C. Molecule `CCCCOc1c(\C(C)=C/C=C/C(C)=C/C(=O)O)cc(C(C)(C)C)cc1C(C)(C)C` yielded a melting point of 148 to 151 °C. As to `Nc1cc([N+](=O)[O-])ccc1OC(F)(F)F`, the melting point lay in the range of 90 to 91 °C.

The molecule `O=C(Nc1nccs1)C(CC1CCCC1)c1ccc(-c2ccccc2)cc1` (stereo unspecified) displayed a melting point of 57 to 58 °C. In turn, `CC(C)(C)NC(=O)[C@@H]1C[C@@H]2CCCC[C@@H]2CN1C[C@@H](O)[C@@H](N)Cc1ccccc1` showed a melting point of 175 to 176 °C. In the case of `CCCNC(=O)C(C)=Cc1ccc2c(c1)c(Cc1ccc(C(=O)NS(=O)(=O)c3ccccc3C)cc1OC)cn2C`, the melting point lay within 189 to 191 °C.

Turning to `O=C(Nc1ccc2[nH]c(=O)[nH]c2c1)C(=O)N1CCC(Oc2ccc(Cl)cc2)CC1`, the melting point was 286 to 288 °C. Under `Cc1cccc(COc2cccc(OCc3ccc4ccc(Cl)cc4n3)c2)c1C(=O)O` stands 188 to 193 °C. Under `CN1CC(=O)c2c(c3ccccc3n2C)S1(=O)=O` stands 180 °C; under `OCc1cccc(-c2ncc(OCCN3CCOCC3)cn2)c1`, 101 to 102 °C; under `CC(C)Oc1ccc(C[C@H](NC(=O)[C@@H]2CCCCN2S(=O)(=O)c2cccc(C(F)(F)F)c2)C(=O)NC2CCOCC2)cc1`, 78.6 °C. For the molecule `COc1ccc(Oc2c(Br)cc(C=O)cc2Br)cc1Cc1ccc(=O)[nH]n1`, the melting point was in the range of 183 to 184 °C. Under `COCc1cnc(C(=O)O)c(C(=O)O)c1` stands 161 to 162 °C.

The molecule `O=[N+]([O-])c1cccc2c(CO)ccnc12` returned a melting point of 148 °C. As for `CCCCCC(C)C(C)c1cc(O)c2c3c(c(=O)oc2c1)SCCC3` (stereo unspecified), the melting point is 131 to 133 °C. Molecule `Cc1ccc(F)c(-c2ccc(S(=O)(=O)N3c4ccccc4CC3C(=O)NCCOc3ccc(CC(=O)O)cc3)cc2)c1` (stereo unspecified) yielded a melting point of 82 to 85 °C.

In turn, `c1csc(CNCc2ccc(-c3cc4ncnc(Nc5ccc6[nH]ccc6c5)c4s3)cc2)c1` gave a melting point of 111 to 121 °C. `CC(C)C[N+]([O-])=Cc1ccccc1`: the melting point is 73 to 75 °C. In the case of `CSC(=O)C(=O)c1cc(NC=O)ccn1`, the melting point was 145 to 148 °C.

In turn, `COc1ccc(CN(C)CCCc2ccc(NC(=O)c3cccc4c(=O)c5cccc(OC)c5sc34)cc2)cc1OC` returned a melting point of 144 to 146 °C. Regarding `Clc1cc(N2CCCC2)nc(NC23CC4CC(CC(C4)C2)C3)n1`, the melting point was in the range of 178 to 180 °C. Under `CN1CCc2nc3cc(Cl)ccc3c(-c3cccs3)c2C1` stands 131 to 132 °C; under `O=S(=O)(Cl)c1c(Cl)cc(F)cc1Cl`, 57 °C; under `COc1cccc(Nc2nc(N)nc3[nH]c4ccccc4c23)c1`, 225 to 226 °C. Turning to `CON(Cc1ccc(F)c(C)c1)C(=O)C1=C(O)C(=O)N(C)C1`, the melting point lay within 160 to 164 °C. Under `CSC1=C(c2ccc(O)cc2)C(=O)c2cc(O)cc(O)c21` stands 120 to 123 °C. Under `CC1=C(c2ccccc2)C(=O)N(C(C)(C)C(=O)C2CCCCC2)CO1` stands 94 °C; under `COc1c(NC(=O)COc2ccccc2)c(C(N)=O)c(OC)c(NC(=O)COc2ccccc2)c1C(N)=O`, 272 to 274 °C.

For the molecule `Cc1nc(C)c(-c2ccnc(Nc3ccc(N4CCCCC4)c(C)c3)n2)s1`, the melting point was in the range of 159 to 160 °C. `CC1(C)CC(=O)c2c(O)cc(O)cc2C1` gave a melting point of 115 to 116 °C.

In the case of `CNC(=O)c1cccc(Nc2ncnc3[nH]cc(C(=O)c4ccccc4C)c23)c1`, the melting point is > 300 °C. Under `COC(=O)c1cccc(OC)c1OS(=O)(=O)NC(=O)Nc1nc(OC)cc(OC)n1` stands 169 to 170 °C; under `CN1CCN(CCCNc2ncc3cc(-c4c(Cl)cccc4Cl)c(NC(=O)Nc4ccc(C(F)(F)F)cc4)nc3n2)CC1`, 146 to 151 °C. Under `Cc1cc(C)cc(Sc2c(CO)nc(C)n2C)c1` stands 198 to 199 °C; under `Cc1cc(=S)c2c(O)cc(OC(C)C)cc2o1`, 119 to 120 °C. Under `O=C(Nc1ccc2c(c1)OC=C1CN(C(=O)OCc3ccccc3)C=CN12)OCc1ccccc1` stands 118 to 120 °C. In turn, `Fc1ccc(Cn2c(NC3CCN(CCc4cccs4)CC3)nc3ccccc32)cc1` showed a melting point of 152 °C.
